Measurements published in US20220372040A1, “METTL3 MODULATORS” (Accent Therapeutics, Inc., priority 2020, published 2022).

Assays:
METTL3/METTL14 = METTL3/METTL14 (Homo sapiens, UniProt Q86U44); experiment: METTL3-14 standard enzyme assay (3H-SAM flashplate scintillation); format: biochemical; conditions: METTL3/METTL14 2.5 nM, RNA 100 nM, 3H-SAM 100 nM, 30 min
In short: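 METTL3/METTL14 (2.5 nM final) preincubated 5 min with compound in 20 mM HEPES pH 7.5, 50 mM KCl, 250 μM MgCl2, 1 mM DTT, ambient temperature; started with 100 nM 3′-biotinylated RNA (UCUGGACUAAA) and 100 nM 3H-SAM. After 30 min, quenched with 15 μM cold SAM; methylated RNA captured on streptavidin flashplates and counted by scintillation.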

METTL1/WDR4 = METTL1/WDR4 (Homo sapiens, UniProt Q9UBP6); experiment: METTL1 assay (3H-SAM flashplate scintillation); format: biochemical; conditions: METTL1/WDR4 6.25 nM, RNA 25 nM, 3H-SAM 60 nM, 20 min; read-out: METTL1 IC50
In short: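 Radiometric methyltransfer by METTL1/WDR4 (6.25 nM f.c., 5 min preincubation) at ambient temperature in HEPES pH 7.5, KCl, MgCl2, DTT; started with 25 nM 3′-biotinylated RNA and 60 nM 3H-SAM, run 20 min, quenched with 15 μM cold SAM. Product captured on streptavidin flashplates (2 h, 25° C), counted by scintillation.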

[1] = tested on: m^6 A in cellular mRNA of MOLM-13 cells; experiment: m^6 A-mRNA LC-MS/MS assay (m^6 A cellular assay); format: cell-based; conditions: Homo sapiens, 24 hours incubation, LC-MS/MS of m^6 A/A in mRNA
Method: m^6 A-mRNA LC-MS/MS Assay
5×10^6 MOLM-13 (DSMZ) cells were seeded into 10 cm dishes in RPMI 1640 media containing 10% fetal bovine serum and placed in a humidified tissue culture incubator at 37° C. overnight. Compounds were resuspended in 100% DMSO and dosed into each dish at a fixed concentration to comprise an 8-point dose response with a 4-fold serial dilution ranging from 25 μM to 1.5 nM in 0.25% DMSO final and allowed to incubate for 24 hours in a humidified tissue culture incubator at 37° C. Cells were harvested by centrifugation followed by mRNA extraction using DTRECT Dynabeads mRNA DTRECT kit (Life Technologies). mRNA was quantified on NanoDrop spectrophotometer (Thermo Fisher Scientific) and digested into single nucleosides using Nucleoside Digestion Mix (New England Biolabs). Nucleosides are quantified with retention time on a BEH […] column (Waters) and the nucleoside-to-base ion mass transition of 282.1-150.1 (m^6 A) and 268-136 (A) on an API 6500+ triple quadrupole mass spectrometer. Quantification is performed in comparison with the standard curve, obtained from pure nucleoside standards (Selleck Chemicals) running with the same batch of samples. Percentage m^6 A in cellular mRNA is calculated as 100*(m^6 A/A).

PRMT5-MEP50 = PRMT5-MEP50 (Homo sapiens, UniProt O14744); experiment: PRMT5 assay (3H-SAM flashplate scintillation); format: biochemical; conditions: PRMT5-MEP50 2.5 nM, histone H4 peptide 100 nM, 3H-SAM 250 nM, 60 min
In short: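 PRMT5-MEP50 (2.5 nM final) preincubated 5 min with compound, then reacted 60 min at ambient temperature with 100 nM biotinylated N-acetyl histone H4 peptide and 250 nM 3H-SAM in 20 mM Tris-HCl pH 8.0, 1 mM DTT, 0.01% Tween. Quenched with 15 μM cold SAM; methylated peptide captured on streptavidin flashplates, scintillation counted.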

METTL16 = molecular target: T1, METTL16 (Homo sapiens, UniProt Q86W50); experiment: METTL16 assay (3H-SAM flashplate scintillation); format: biochemical; conditions: METTL16 100 nM, RNA 50 nM, 3H-SAM 200 nM, SAM 800 nM, 20 min
T1 sequence (Q86W50 1-562): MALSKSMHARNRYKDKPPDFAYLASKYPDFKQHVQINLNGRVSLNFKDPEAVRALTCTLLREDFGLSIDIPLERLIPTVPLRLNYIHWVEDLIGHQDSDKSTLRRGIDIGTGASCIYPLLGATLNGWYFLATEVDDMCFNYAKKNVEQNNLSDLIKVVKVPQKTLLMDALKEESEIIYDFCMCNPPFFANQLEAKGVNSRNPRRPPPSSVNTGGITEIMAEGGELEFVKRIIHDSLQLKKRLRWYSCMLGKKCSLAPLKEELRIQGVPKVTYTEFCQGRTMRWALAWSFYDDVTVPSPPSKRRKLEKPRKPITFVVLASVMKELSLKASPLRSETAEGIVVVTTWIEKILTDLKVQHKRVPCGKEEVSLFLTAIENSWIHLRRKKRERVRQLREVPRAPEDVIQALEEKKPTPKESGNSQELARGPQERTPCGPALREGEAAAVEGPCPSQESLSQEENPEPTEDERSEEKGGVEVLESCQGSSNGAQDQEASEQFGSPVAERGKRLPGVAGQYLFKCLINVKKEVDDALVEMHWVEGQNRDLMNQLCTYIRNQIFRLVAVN
Method: Assays were performed in a 25 μl-volume in 384-well V-bottom polypropylene microplates (Greiner Bio-One, cat. No. 781280) at ambient temperature. Optimized 1× assay buffer was 20 mM HEPES pH 7.5, 50 mM KCl, 1 mM DTT, 0.01% Tween, 0.01% BSG, 0.004 U/μl RNAseOUT (cat. No. 10777019, ThermoFisher Scientific, Waltham, Mass.). For compound screening METTL16 (final concentration, f.c.=100 nM) was added using a Multidrop Combi (ThermoFisher Scientific, Waltham, Mass.) and preincubated for 5 min. Reactions were started by adding 3′ biotinylated RNA ([…]-biotin) (f.c.=50 nM), 3H-SAM (f.c.=200 nM) and non-radiolabeled SAM (f.c.=800 nM) substrates. Reactions proceeded for 20 minutes and were quenched with excess non-radioactive SAM (f.c.=100 μM). The reactions were then transferred to streptavidin-coated flashplates and incubated for 2 hours at 25° C. Following two washing cycles with 0.1% Tween-20, the plates were sealed and read on a TopCount (PerkinElmer, Waltham, Mass.) plate-based scintillation counter. For determination of kinetic parameters, reaction times were optimized so that measurements were taken during the initial velocity phase of the reaction.

MOLM-13 cells = experiment: MOLM-13 96 Hour cell proliferation assay (Cell Titer-Glo); format: cell-based; conditions: Homo sapiens
Method: MOLM-13 96 Hour Cell Proliferation Assay
MOLM-13 (DSMZ) cells were seeded at 600 cells per well in a volume of 44 μL in a Greiner Bio-One CELLSTAR™ 384 Well Polystyrene Cell Culture clear bottom microplate in RPMI 1640 media containing 10% fetal bovine serum using a Multidrop Combi (ThermoFisher Scientific). Cells were incubated overnight at 37° C. in a humidified tissue culture incubator. To prevent evaporation or to reduce edge effect, add 50 μL or more H2O to an empty plate, cover, and place on top of the cell plates. The Mosquito® HTS Liquid Handler was used to make a compound/media intermediate plate by aliquoting 1 μL of compound from the initial compound dilution plate (concentrations ranging from 10.0 mM to 38.0 nM in 100% DMSO) into Bio-One 384-well polypropylene conical bottom microplate containing 49 μL of media containing the appropriate serum (50-fold dilution, 2% DMSO, compound concentrations ranging from 200.0 μM and […]). The Apricot liquid handling system was used to transfer 6.2 μL compounds from the intermediate plate into the seeding plate containing 44 μL cells (8-fold dilution spanning concentrations 25.0 μM to […], 0.25% DMSO final), and placed in a humidified tissue culture incubator at 37° C. After 96 hours, 25 μL of Cell Titer-Glo reagent (Promega) was added to each well using an Integra liquid handling system. The plate was protected from light using TopSeal-A (Black) film over the entire plate, added White Bottom seal film on the bottom of the entire plate for a better reading on the Envision, and placed on an IKA plate shaker for at 300 rpm for 10 minutes at room temperature. The plate was read on an EnVision plate reader (Perkin Elmer) using the Ultra Sensitive Luminescence protocol. Data analysis was performed by normalizing the raw luminescence units to an average of the positive control values for staurosporine (100% cell death) and the negative control values for DMSO (0% cell death). An IC50 was calculated using a 4-parameter logistic nonlinear regression model in GraphPad Prism.

Sequence of PRMT5-MEP50 (O14744 whole entry): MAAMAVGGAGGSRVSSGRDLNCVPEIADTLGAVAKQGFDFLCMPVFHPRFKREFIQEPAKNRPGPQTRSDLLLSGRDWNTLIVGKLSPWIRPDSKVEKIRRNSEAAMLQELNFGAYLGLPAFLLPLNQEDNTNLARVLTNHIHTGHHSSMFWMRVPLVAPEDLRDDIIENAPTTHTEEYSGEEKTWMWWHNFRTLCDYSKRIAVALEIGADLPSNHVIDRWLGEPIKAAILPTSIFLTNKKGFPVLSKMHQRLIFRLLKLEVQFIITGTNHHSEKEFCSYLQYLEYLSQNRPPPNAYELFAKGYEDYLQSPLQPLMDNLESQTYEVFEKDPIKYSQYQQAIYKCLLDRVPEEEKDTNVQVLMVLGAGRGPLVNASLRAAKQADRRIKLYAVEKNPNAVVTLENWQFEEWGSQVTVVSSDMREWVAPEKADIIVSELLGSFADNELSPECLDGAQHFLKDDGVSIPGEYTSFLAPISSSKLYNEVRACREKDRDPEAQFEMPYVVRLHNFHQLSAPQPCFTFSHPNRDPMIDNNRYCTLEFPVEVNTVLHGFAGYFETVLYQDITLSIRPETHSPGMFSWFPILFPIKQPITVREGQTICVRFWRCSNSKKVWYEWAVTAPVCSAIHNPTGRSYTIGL
Sequence of PRMT5-MEP50 (Q9BQA1 whole entry partner): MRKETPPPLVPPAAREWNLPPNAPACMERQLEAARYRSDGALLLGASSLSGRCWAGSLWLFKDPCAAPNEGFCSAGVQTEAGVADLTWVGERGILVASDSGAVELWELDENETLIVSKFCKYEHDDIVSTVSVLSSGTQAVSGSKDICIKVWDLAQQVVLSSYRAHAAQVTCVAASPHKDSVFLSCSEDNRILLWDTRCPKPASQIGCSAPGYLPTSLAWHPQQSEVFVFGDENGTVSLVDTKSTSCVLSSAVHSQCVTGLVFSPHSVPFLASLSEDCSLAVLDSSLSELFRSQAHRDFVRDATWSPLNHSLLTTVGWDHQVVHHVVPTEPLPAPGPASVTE
Sequence of METTL3/METTL14 (Q86U44 whole entry, species assumed): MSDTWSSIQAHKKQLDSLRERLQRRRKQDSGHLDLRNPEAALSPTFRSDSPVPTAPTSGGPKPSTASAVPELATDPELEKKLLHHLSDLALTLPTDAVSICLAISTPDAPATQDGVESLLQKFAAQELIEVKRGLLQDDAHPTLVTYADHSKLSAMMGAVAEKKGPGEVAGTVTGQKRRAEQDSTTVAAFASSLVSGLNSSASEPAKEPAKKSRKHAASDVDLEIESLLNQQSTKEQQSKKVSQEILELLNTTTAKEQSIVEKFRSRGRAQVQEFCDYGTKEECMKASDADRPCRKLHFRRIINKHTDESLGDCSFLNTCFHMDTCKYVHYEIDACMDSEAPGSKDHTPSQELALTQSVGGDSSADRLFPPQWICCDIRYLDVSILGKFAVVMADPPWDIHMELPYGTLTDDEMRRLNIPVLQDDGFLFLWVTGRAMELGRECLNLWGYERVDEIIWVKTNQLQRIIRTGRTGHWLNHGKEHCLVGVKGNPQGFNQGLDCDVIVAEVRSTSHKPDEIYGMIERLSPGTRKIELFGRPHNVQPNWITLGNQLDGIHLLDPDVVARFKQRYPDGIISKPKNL
Sequence of METTL3/METTL14 (Q9HCE5 whole entry partner, species assumed): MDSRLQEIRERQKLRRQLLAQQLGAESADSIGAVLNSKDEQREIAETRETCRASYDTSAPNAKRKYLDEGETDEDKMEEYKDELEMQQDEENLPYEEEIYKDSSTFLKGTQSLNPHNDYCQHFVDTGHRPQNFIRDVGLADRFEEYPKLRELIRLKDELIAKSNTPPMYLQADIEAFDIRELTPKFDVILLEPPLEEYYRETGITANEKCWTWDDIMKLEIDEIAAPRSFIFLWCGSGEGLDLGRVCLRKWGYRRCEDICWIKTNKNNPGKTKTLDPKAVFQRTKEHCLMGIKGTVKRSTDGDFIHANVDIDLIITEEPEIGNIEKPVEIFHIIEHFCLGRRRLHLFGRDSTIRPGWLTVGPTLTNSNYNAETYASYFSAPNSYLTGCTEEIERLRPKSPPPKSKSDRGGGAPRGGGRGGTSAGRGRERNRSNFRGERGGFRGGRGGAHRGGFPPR
Sequence of METTL1/WDR4 (Q9UBP6 whole entry, species assumed): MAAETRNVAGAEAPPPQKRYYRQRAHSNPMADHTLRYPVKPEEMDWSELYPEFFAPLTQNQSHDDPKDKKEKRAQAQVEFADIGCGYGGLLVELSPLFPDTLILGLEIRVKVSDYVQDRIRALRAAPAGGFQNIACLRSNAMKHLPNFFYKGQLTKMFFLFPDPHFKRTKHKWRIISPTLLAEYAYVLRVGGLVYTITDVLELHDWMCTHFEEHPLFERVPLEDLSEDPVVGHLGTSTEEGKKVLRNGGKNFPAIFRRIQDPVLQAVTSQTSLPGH
Sequence of METTL1/WDR4 (P57081 whole entry partner, species assumed): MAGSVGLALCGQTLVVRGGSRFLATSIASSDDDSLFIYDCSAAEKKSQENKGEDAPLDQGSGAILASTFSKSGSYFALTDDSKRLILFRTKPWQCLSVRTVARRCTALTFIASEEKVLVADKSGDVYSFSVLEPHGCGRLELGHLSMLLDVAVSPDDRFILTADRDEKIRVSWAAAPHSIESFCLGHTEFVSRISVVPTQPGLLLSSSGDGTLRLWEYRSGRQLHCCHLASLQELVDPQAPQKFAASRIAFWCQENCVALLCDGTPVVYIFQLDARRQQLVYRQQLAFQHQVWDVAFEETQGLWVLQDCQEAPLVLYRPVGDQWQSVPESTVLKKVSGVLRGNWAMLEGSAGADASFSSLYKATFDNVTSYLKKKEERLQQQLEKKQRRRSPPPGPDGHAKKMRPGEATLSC

Row | SMILES | IC50 (METTL3/METTL14) | IC50 (METTL1/WDR4) | IC50 [1] | IC50 (PRMT5-MEP50) | IC50 (METTL16) | IC50 (MOLM-13 cells)
1 | CNc1ccc2ccc(OCc3cncc(-n4cc(Cl)c5c(N)ncnc54)n3)cc2n1 [Compound I-20] | < 0.01 µM | > 1 µM | 1 to 10 µM | > 1 µM |  | 
2 | Cc1cc(N)c2ccc(OCc3cncc(-n4ccc5c(N)ncnc54)c3)cc2n1 [Compound I-48] | 0.1 to 1 µM |  |  | > 1 µM | > 1 µM | ≥ 10 µM
3 | CCc1cc(N)c2ccc(OCc3cncc(-n4cc(Cl)c5c(N)ncnc54)c3)cc2n1 [Compound I-52] | < 0.01 µM |  | ≥ 10 µM | > 1 µM | > 1 µM | 
4 | Nc1ncnc2c1c(Cl)cn2-c1cncc(COc2ccc3ccc(NCC4CC4)nc3c2)c1 [Compound I-55] | 0.1 to 1 µM |  |  | > 1 µM | > 1 µM | 1 to 10 µM
5 | CN(C)CCNc1cc(C2CCC2)nc2cc(OCc3cncc(-n4ccc5c(N)ncnc54)c3)ccc12 [Compound I-92] | < 0.01 µM | > 1 µM | 1 to 10 µM | > 1 µM |  | < 1 µM
6 | CC(C)c1cc(N2CCNCC2)c2ccc(OCc3cncc(-n4ccc5c(N)ncnc54)c3)cc2n1 [Compound I-95] | < 0.01 µM | > 1 µM | 1 to 10 µM | > 1 µM |  | < 1 µM
7 | Cn1ccc(-c2cn(-c3cncc(CCc4ccc5ccc(N6CCC6)nc5c4)c3)c3ncnc(N)c23)n1 [Compound I-104] | < 0.01 µM |  | < 1 µM | > 1 µM |  | < 1 µM
8 | CCNc1ccc2ccc(CCc3cncc(-n4cc(-c5ccn(C)n5)c5c(N)ncnc54)c3)cc2n1 [Compound I-106] | < 0.01 µM |  | < 1 µM | > 1 µM |  | < 1 µM
9 | CCc1cc(N2CCOCC2)c2ccc(OCc3cncc(-n4ccc5c(N)ncnc54)c3)cc2n1 [Compound I-108] | < 0.01 µM |  | 1 to 10 µM | > 1 µM |  | 1 to 10 µM
10 | CNc1ccc2ccc(CCc3cncc(-n4cc(C5CCCC5)c5c(N)ncnc54)n3)cc2n1 [Compound I-110] | < 0.01 µM | > 1 µM | 1 to 10 µM | > 1 µM | > 1 µM | 
11 | CCc1cc(NC)c2ccc(OCc3cncc(-n4cc(-c5ccn(C)n5)c5c(N)ncnc54)c3)cc2n1 [Compound I-135] | < 0.01 µM |  | 1 to 10 µM |  |  | < 1 µM
12 | CCc1cc(N(C)C2CC2)c2ccc(OCc3cncc(-n4cc(-c5ccn(C)n5)c5c(N)ncnc54)c3)cc2n1 [Compound I-136] | < 0.01 µM |  | 1 to 10 µM |  |  | < 1 µM
13 | CCc1cc(N(C)CC2CC2)c2ccc(OCc3cncc(-n4cc(-c5ccn(C)n5)c5c(N)ncnc54)c3)cc2n1 [Compound I-137] | < 0.01 µM |  | 1 to 10 µM |  |  | < 1 µM
14 | CCc1cc(NCCOC)c2ncc(OCc3cncc(-n4cc(-c5ccn(C)n5)c5c(N)ncnc54)c3)cc2n1 [Compound I-138] | < 0.01 µM |  | 1 to 10 µM |  |  | < 1 µM
15 | Nc1ncnc2c1c([C@@H]1CCCO1)cn2-c1cncc(COc2ccc3ccc(N4CCC4)nc3c2)c1 [Compound I-145] | < 0.01 µM |  | < 1 µM |  |  | < 1 µM
16 | CCc1cc(N(C)C)c2ccc(OCc3cncc(-n4cc(-c5ccn(C)n5)c5c(N)ncnc54)c3)cc2n1 [Compound I-147] | < 0.01 µM |  | ≥ 10 µM |  |  | < 1 µM
17 | CCc1cc(N(C)CCN(C)C)c2ccc(CCc3cncc(-n4cc(-c5ccn(C)n5)c5c(N)ncnc54)c3)cc2n1 [Compound I-155] | < 0.01 µM |  | 1 to 10 µM |  |  | < 1 µM
18 | CCc1cc(NCCN(C)C)c2c(F)cc(CCc3cncc(-n4cc(-c5ccn(C)n5)c5c(N)ncnc54)c3)cc2n1 [Compound I-227] | < 0.01 µM |  | 1 to 10 µM |  |  | < 1 µM
19 | CCc1cc(NCCN(C)C)c2c(F)cc(OCc3cncc(-n4cc(-c5ccn(C)n5)c5c(N)ncnc54)c3)cc2n1 [Compound I-230] | < 0.01 µM |  | ≥ 10 µM |  |  | 1 to 10 µM
20 | CNc1cc(CCCN2CCOCC2)c2ccc(OCc3cncc(-n4ccc5c(N)ncnc54)c3)cc2n1 [Compound I-233] | < 0.01 µM |  | ≥ 10 µM | > 1 µM |  | 1 to 10 µM
21 | CNc1ccc2ccc(OCc3cncc(-n4cc(-c5ccc(CNCCS(C)(=O)=O)o5)c5c(N)ncnc54)c3)cc2n1 [Compound I-236] | < 0.01 µM |  | 1 to 10 µM |  |  | 1 to 10 µM
